{"source": "patent US20230339865A1", "about": "“QUINAZOLINE-DERIVED HCK INHIBITORS FOR USE IN THE TREATMENT OF MYD88 MUTATED DISEASES” (Dana-Farber Cancer Institute, Inc., priority 2020, published 2023)", "key": {"FER": {"biological_target": "T1, FER (Homo sapiens, UniProt P16591)", "T1 construct": "purchased Invitrogen", "experiment": "Invitrogen kinase assay FER", "type": "biochemical", "method": "(§1) The IC50 values were also determined for Compound (I-1) using an Invitrogen kinase assay. The results are shown in Table 2, along with comparison data with TL2-059."}, "LCK": {"biological_target": "T2, LCK (Homo sapiens, UniProt P06239)", "T2 construct": "purchased Invitrogen", "experiment": "Invitrogen kinase assay LCK", "type": "biochemical", "method": "as §1"}, "MAP4K1 (HPK1)": {"biological_target": "T3, MAP4K1 (HPK1) (Homo sapiens, UniProt Q92918)", "T3 construct": "purchased Invitrogen", "T3 sequence (Q92918 whole entry)": "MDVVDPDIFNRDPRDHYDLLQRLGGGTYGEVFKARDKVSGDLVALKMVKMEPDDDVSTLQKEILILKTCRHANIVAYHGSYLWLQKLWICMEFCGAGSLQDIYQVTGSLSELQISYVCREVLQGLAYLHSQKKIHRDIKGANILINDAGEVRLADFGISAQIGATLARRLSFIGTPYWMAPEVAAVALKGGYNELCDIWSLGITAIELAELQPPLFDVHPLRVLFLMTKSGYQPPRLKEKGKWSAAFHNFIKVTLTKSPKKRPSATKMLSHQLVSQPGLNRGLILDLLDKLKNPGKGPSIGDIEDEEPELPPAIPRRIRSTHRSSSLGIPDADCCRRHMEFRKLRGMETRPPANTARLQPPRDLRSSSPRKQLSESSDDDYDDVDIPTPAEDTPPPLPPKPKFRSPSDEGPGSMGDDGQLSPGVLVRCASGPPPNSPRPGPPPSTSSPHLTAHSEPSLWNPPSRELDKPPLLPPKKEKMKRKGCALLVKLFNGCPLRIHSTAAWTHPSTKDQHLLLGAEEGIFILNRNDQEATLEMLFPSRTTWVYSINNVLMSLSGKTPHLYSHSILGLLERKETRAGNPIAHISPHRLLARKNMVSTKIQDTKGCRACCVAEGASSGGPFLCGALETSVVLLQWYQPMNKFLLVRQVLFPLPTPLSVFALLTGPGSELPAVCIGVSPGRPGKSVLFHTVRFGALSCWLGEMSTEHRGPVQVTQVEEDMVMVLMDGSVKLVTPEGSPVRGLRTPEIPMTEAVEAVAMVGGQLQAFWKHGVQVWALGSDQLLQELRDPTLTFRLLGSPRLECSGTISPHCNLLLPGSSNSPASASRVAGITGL", "experiment": "Invitrogen kinase assay MAP4K1 (HPK1)", "type": "biochemical", "method": "as §1"}, "FYN": {"biological_target": "T4, FYN (Homo sapiens, UniProt P06241)", "T4 construct": "purchased Invitrogen", "experiment": "Invitrogen kinase assay FYN", "type": "biochemical", "method": "as §1"}, "[1]": {"biological_target": "T5, MAP3K7/MAP3K7IP1 (TAK1-TAB1) (Homo sapiens, UniProt O43318)", "T5 construct": "purchased Invitrogen", "T5 sequence (O43318 with tags, fused parts or gaps limits assumed)": "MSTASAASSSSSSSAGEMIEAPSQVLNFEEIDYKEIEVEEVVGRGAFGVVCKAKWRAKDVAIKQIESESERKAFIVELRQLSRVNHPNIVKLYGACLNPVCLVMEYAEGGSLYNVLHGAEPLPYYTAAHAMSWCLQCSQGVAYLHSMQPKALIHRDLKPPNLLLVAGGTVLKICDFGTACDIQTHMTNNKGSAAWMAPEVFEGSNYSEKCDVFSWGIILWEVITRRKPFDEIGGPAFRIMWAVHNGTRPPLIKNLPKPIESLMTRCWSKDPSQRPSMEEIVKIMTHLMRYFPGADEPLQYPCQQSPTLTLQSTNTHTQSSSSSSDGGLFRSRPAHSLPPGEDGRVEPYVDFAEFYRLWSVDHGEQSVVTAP", "experiment": "Invitrogen kinase assay MAP3K7/MAP3K7IP1 (TAK1-TAB1)", "type": "biochemical", "method": "as §1"}, "[2]": {"experiment": "microsome stability (rat)", "type": "in vitro ADME", "conditions": "microsomes, read-out: microsome stability (T1/2, min)", "method": "(§2) The compounds were tested against several different cell lines, and the ED50 values determined, along with the microsome stability."}, "[3]": {"biological_target": "T6, MAPK14 (p38 alpha) Direct (Homo sapiens, UniProt Q16539)", "T6 construct": "purchased Invitrogen", "T6 sequence (Q16539 whole entry)": "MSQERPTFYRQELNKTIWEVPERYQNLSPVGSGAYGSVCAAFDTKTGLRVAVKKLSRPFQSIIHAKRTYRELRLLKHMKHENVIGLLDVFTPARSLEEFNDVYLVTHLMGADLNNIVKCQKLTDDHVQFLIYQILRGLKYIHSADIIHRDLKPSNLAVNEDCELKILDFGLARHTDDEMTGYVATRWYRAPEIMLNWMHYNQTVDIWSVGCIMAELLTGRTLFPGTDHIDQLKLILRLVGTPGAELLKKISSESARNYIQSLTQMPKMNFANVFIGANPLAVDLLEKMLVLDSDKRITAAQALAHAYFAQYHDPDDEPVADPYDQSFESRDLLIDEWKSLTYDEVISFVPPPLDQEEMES", "experiment": "Invitrogen kinase assay MAPK14 (p38 alpha) Direct", "type": "biochemical", "method": "as §1"}, "FGR": {"biological_target": "T7, FGR (Homo sapiens, UniProt P09769)", "T7 construct": "purchased Invitrogen", "T7 sequence (P09769 whole entry)": "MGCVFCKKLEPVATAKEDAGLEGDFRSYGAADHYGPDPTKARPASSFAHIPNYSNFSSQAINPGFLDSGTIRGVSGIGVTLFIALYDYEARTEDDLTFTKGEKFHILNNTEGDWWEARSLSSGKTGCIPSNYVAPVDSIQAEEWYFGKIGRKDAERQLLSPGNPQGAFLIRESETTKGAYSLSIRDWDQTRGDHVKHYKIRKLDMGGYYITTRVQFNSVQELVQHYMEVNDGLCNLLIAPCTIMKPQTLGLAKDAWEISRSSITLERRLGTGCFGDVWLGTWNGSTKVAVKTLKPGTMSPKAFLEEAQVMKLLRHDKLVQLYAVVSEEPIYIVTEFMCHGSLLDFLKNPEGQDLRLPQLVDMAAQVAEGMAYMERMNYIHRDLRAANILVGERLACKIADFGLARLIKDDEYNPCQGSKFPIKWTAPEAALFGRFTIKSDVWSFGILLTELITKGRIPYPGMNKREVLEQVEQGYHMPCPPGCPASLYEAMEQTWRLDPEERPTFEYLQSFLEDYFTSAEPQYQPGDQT", "experiment": "Invitrogen kinase assay FGR", "type": "biochemical", "method": "as §1"}, "ABL1": {"biological_target": "T8, ABL1 (Homo sapiens, UniProt P00519)", "T8 construct": "purchased Invitrogen", "T8 sequence (P00519 whole entry)": "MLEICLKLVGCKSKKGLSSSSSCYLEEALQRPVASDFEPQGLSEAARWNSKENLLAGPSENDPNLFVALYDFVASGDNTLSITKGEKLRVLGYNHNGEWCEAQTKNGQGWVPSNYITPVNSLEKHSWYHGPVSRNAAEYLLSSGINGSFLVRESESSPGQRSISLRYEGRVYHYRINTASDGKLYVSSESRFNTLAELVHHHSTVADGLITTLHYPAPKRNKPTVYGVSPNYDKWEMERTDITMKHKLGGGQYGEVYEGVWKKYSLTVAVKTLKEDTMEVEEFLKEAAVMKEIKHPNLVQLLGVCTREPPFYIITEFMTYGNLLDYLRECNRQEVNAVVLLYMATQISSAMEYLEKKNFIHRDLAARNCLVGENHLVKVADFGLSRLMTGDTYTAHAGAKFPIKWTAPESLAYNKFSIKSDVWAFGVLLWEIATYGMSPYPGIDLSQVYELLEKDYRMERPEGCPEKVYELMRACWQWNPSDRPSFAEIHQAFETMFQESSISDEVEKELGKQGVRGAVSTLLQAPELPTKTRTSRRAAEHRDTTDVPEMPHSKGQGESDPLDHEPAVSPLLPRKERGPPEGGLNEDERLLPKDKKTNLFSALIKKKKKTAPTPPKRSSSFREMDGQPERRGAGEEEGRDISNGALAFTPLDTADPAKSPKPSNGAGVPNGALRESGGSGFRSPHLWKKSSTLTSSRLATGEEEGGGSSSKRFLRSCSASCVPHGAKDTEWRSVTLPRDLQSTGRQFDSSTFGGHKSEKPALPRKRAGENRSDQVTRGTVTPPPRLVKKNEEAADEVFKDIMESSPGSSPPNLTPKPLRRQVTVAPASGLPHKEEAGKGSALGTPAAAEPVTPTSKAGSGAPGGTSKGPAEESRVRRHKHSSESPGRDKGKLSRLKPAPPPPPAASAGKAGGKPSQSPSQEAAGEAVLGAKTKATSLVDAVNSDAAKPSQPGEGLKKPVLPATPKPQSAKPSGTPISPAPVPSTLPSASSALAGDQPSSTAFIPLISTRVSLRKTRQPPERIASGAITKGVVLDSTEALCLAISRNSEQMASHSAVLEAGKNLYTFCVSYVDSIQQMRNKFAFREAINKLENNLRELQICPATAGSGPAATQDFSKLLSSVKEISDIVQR", "experiment": "Invitrogen kinase assay ABL1", "type": "biochemical", "method": "as §1"}, "[4]": {"system": "MYD88 mutated ABC DLBCL TMD8 xenograft", "experiment": "In-vivo rat efficacy study in MYD88 mutated ABC DLBCL TMD8 xenografted rats", "method": "Example 1. In-Vivo Rat Efficacy Study in MYD88 Mutated ABC DLBCL TMD8 Xenografted Rats\nA rat efficacy study for was carried out with Compound (I-1) using an MYD88 mutated ABC DLBCL TMD8 xenografted rat model."}, "ABL2 (Arg)": {"biological_target": "T9, ABL2 (Arg) (Homo sapiens, UniProt P42684)", "T9 construct": "purchased Invitrogen", "experiment": "Invitrogen kinase assay ABL2 (Arg)", "type": "biochemical", "method": "as §1"}, "TAOK1": {"biological_target": "T10, TAOK1 (Homo sapiens, UniProt Q7L7X3)", "T10 construct": "purchased Invitrogen", "experiment": "Invitrogen kinase assay TAOK1", "type": "biochemical", "method": "as §1"}, "MAP4K2 (GCK)": {"biological_target": "T11, MAP4K2 (GCK) (Homo sapiens, UniProt Q12851)", "T11 construct": "purchased Invitrogen", "experiment": "Invitrogen kinase assay MAP4K2 (GCK)", "type": "biochemical", "method": "as §1"}, "HCK [5]": {"biological_target": "T12, HCK (Homo sapiens, UniProt P08631)", "T12 sequence (P08631 whole entry)": "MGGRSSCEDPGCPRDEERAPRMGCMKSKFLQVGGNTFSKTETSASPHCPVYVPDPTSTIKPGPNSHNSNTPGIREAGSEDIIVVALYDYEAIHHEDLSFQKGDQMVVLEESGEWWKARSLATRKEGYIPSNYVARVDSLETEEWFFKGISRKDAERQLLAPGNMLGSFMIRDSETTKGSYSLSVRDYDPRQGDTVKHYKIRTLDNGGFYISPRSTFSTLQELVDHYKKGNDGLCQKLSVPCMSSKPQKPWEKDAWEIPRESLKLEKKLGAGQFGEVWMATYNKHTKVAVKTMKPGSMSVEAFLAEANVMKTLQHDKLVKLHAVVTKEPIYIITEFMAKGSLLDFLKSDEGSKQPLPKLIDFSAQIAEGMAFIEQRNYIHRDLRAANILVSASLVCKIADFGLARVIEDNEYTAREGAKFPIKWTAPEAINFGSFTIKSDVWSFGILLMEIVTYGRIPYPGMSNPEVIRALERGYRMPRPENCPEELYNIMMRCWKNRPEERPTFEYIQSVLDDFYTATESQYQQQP", "experiment": "Invitrogen kinase assay HCK", "type": "biochemical", "parameters": "purchased Invitrogen", "method": "as §1"}, "HCK [6]": {"biological_target": "T12, HCK", "experiment": "HCK inhibition in MYD88 mutated cells", "type": "cell-based", "conditions": "MYD88 mutated WM and ABC DLBCL cell lines and primary WM cells"}, "[7]": {"system": "healthy donor B- and T-cells", "experiment": "Effect on healthy donor B- and T-cells", "type": "cell-based"}, "[8]": {"experiment": "microsome stability (human)", "type": "in vitro ADME", "conditions": "microsomes, read-out: microsome stability (T1/2, min)", "method": "as §2"}, "HCK, BTK, and NFκB": {"system": "HCK, BTK, and NFκB", "experiment": "Pharmacodynamic studies in mice", "type": "in vivo"}, "[9]": {"system": "MYD88 mutated WM and ABC DLBCL cell lines, primary WM cells", "experiment": "Apoptotic effects in MYD88 mutated cells", "type": "cell-based", "conditions": "vs. ibrutinib or A419259"}, "[10]": {"experiment": "microsome stability (mouse)", "type": "in vitro ADME", "conditions": "microsomes, read-out: microsome stability (T1/2, min)", "method": "as §2"}, "TAOK3 (JIK)": {"biological_target": "T13, TAOK3 (JIK) (Homo sapiens, UniProt Q9H2K8)", "T13 construct": "purchased Invitrogen", "experiment": "Invitrogen kinase assay TAOK3 (JIK)", "type": "biochemical", "method": "as §1"}, "SRC": {"biological_target": "T14, SRC (Homo sapiens, UniProt P12931)", "T14 construct": "purchased Invitrogen", "T14 sequence (P12931 whole entry)": "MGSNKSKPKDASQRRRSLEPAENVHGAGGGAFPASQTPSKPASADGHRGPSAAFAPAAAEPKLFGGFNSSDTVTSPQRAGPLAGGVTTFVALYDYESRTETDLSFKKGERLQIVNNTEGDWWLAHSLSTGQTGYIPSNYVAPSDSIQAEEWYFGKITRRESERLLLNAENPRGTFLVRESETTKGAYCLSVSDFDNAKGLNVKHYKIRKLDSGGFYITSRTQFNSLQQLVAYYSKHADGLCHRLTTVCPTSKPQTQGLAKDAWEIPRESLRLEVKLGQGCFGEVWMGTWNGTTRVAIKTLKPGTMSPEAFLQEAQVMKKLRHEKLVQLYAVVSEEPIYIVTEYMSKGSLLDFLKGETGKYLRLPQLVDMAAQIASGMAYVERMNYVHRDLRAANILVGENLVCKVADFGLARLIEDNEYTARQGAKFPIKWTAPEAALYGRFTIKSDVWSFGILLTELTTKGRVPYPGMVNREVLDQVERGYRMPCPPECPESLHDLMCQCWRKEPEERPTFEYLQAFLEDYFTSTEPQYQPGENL", "experiment": "Invitrogen kinase assay SRC", "type": "biochemical", "method": "as §1"}, "FES (FPS)": {"biological_target": "T15, FES (FPS) (Homo sapiens, UniProt P07332)", "T15 construct": "purchased Invitrogen", "experiment": "Invitrogen kinase assay FES (FPS)", "type": "biochemical", "method": "as §1"}, "TAOK2 (TAO1)": {"biological_target": "T16, TAOK2 (TAO1) (Homo sapiens, UniProt Q9UL54)", "T16 construct": "purchased Invitrogen", "experiment": "Invitrogen kinase assay TAOK2 (TAO1)", "type": "biochemical", "method": "as §1"}, "LYN A": {"biological_target": "T17, LYN A (Homo sapiens, UniProt P07948)", "T17 construct": "purchased Invitrogen", "T17 sequence (P07948 whole entry)": "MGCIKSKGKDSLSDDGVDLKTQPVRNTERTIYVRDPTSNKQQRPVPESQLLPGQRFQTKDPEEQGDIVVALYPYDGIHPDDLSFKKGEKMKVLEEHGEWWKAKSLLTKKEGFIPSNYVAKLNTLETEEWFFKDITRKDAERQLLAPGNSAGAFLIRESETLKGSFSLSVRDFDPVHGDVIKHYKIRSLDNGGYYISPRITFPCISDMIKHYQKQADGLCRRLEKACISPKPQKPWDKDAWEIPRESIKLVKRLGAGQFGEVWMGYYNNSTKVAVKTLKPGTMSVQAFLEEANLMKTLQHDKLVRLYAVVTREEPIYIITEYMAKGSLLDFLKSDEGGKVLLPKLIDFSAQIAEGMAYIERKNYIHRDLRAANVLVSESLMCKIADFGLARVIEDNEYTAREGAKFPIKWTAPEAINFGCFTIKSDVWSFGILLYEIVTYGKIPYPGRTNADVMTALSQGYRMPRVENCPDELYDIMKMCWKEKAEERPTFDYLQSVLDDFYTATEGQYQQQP", "experiment": "Invitrogen kinase assay LYN A", "type": "biochemical", "method": "as §1"}}, "data": [{"molecule": "CCN1CCN(Cc2ccc(NC(=O)c3ccc(C)c(Oc4ncnc5cc(NC)c(OC)cc45)c3)cc2C(F)(F)F)CC1", "note": "[Compound (I-1), N-(4-((4-ethylpiperazin-1-yl)methyl)-3-(trifluoromethyl)phenyl)-3-(6-methoxy-7-(methylamino)quinazolin-4-yloxy)-4-methylbenzamide]", "values": [{"measurement": "IC50", "setting": "FER", "value": 0.00981, "unit": "µM"}, {"measurement": "IC50", "setting": "LCK", "value": 0.00473, "unit": "µM"}, {"measurement": "IC50", "setting": "MAP4K1 (HPK1)", "value": 0.0118, "unit": "µM"}, {"measurement": "IC50", "setting": "FYN", "value": 0.419, "unit": "µM"}, {"measurement": "IC50", "setting": "[1]", "value": 0.0241, "unit": "µM"}, {"measurement": "half-life", "setting": "[2]", "value": 60.2, "unit": "min"}, {"measurement": "IC50", "setting": "[3]", "value": 0.0797, "unit": "µM"}, {"measurement": "IC50", "setting": "FGR", "value": 0.00802, "unit": "µM"}, {"measurement": "IC50", "setting": "ABL1", "value": 0.0323, "unit": "µM"}, {"measurement": "Mean tumor volume compared to vehicle", "setting": "[4]; 30 mg/kg, TMD8 xenografted rat model", "value": "lower Mean tumor volume compared to vehicle"}, {"measurement": "survival days", "setting": "[4]; TMD8 xenograft model, vehicle 22 survival days", "value": 43, "unit": "days"}, {"measurement": "IC50", "setting": "ABL2 (Arg)", "value": 0.0455, "unit": "µM"}, {"measurement": "IC50", "setting": "TAOK1", "value": 0.194, "unit": "µM"}, {"measurement": "IC50", "setting": "MAP4K2 (GCK)", "value": 0.00835, "unit": "µM"}, {"measurement": "IC50", "setting": "HCK [5]", "value": 0.00739, "unit": "µM"}, {"measurement": "HCK inhibition", "setting": "HCK [6]", "value": "inhibits HCK in a dose dependent Type II inhibition"}, {"measurement": "effect on healthy donor B- and T-cells", "setting": "[7]", "value": "sparing of healthy donor B- and T-cells"}, {"measurement": "half-life", "setting": "[8]", "value": 79.3, "unit": "min"}, {"measurement": "Pharmacodynamic inhibition of HCK, BTK, and NFκB", "setting": "HCK, BTK, and NFκB", "value": "inhibition of HCK, BTK, and NFκB"}, {"measurement": "tumor redistribution", "setting": "HCK, BTK, and NFκB", "value": "dose-related tumor redistribution"}, {"measurement": "apoptotic effects", "setting": "[9]", "value": "potent apoptotic effects"}, {"measurement": "half-life", "setting": "[10]", "value": 42.4, "unit": "min"}, {"measurement": "IC50", "setting": "TAOK3 (JIK)", "value": 0.413, "unit": "µM"}, {"measurement": "IC50", "setting": "SRC", "value": 0.0775, "unit": "µM"}, {"measurement": "IC50", "setting": "FES (FPS)", "value": 0.011, "unit": "µM"}, {"measurement": "IC50", "setting": "TAOK2 (TAO1)", "value": 0.0613, "unit": "µM"}, {"measurement": "IC50", "setting": "LYN A", "value": 0.00877, "unit": "µM"}]}, {"molecule": "CCN1CCN(Cc2ccc(NC(=O)c3ccc(C)c(Oc4ncnc5cc(N)c(OC)cc45)c3)cc2C(F)(F)F)CC1", "note": "[Compound (I-2), 3-(7-amino-6-methoxyquinazolin-4-yloxy)-N-(4-((4-ethylpiperazin-1-yl)methyl)-3-(trifluoromethyl)phenyl)-4-methylbenzamide]", "values": [{"measurement": "half-life", "setting": "[10]", "value": 41.7, "unit": "min"}]}, {"molecule": "COc1cc2c(Oc3cc(C(=O)Nc4cccc(C(F)(F)F)c4)ccc3C)ncnc2cc1NCCN1CCN(C)CC1", "note": "[Compound (I-4), 3-(6-methoxy-7-(2-(4-methylpiperazin-1-yl)ethylamino)quinazolin-4-yloxy)-4-methyl-N-(3-(trifluoromethyl)phenyl)benzamide]", "values": [{"measurement": "half-life", "setting": "[10]", "value": 5.7, "unit": "min"}]}, {"molecule": "CCN1CCN(Cc2ccc(NC(=O)c3ccc(C)c(Oc4ncnc5cc(NC)ccc45)c3)cc2C(F)(F)F)CC1", "note": "[Compound (I-14), N-(4-((4-ethylpiperazin-1-yl)methyl)-3-(trifluoromethyl)phenyl)-4-methyl-3-(7-(methylamino)quinazolin-4-yloxy)benzamide]", "values": [{"measurement": "half-life", "setting": "[10]", "value": 20.4, "unit": "min"}]}, {"molecule": "CCN1CCN(Cc2ccc(NC(=O)c3ccc(C)c(Oc4ncnc5cc6[nH]cnc6cc45)c3)cc2C(F)(F)F)CC1", "note": "[Compound (I-16), 3-(3H-imidazo[4,5-g]quinazolin-8-yloxy)-N-(4-((4-ethylpiperazin-1-yl)methyl)-3-(trifluoromethyl)phenyl)-4-methylbenzamide]", "values": [{"measurement": "half-life", "setting": "[10]", "value": 8.6, "unit": "min"}]}]}
